Data from patent publication US20110257258A1 (priority 2006, published 2011).

How the values were obtained:
H5N1 = type: cell-based
Avian Influenza virus [1] = test system: Avian Influenza virus; parameters: species or system Human; details: in vivo
Avian Influenza virus [2] = test system: Avian Influenza virus; parameters: species or system Human; details: in vivo; remark: listed apart in the source

Compound	inhibits H5N1 infections in mammalian cells by blocking the attachment and entry into the cells (H5N1)	adults in the test group developing Avian Influenza symptoms (Avian Influenza virus [1])	abatement of Avian Influenza symptoms (Avian Influenza virus [2])	recovery from the Avian Influenza illness (Avian Influenza virus [2])
O=C(O[C@@H]1Cc2c(O)cc(O)cc2O[C@@H]1c1cc(=O)c(O)c2c(O)c(O)cc([C@H]3Oc4cc(O)cc(O)c4C[C@H]3O)c2c1)c1cc(O)c(O)c(O)c1 [theaflavin-3-monogallate]	inhibits H5N1 infections	–	–	–
O=c1c(O)cc([C@H]2Oc3cc(O)cc(O)c3C[C@H]2O)cc2c([C@H]3Oc4cc(O)cc(O)c4C[C@H]3O)cc(O)c(O)c12 [theaflavin]	inhibits H5N1 infections	None	abate more rapidly than normal	fully recovers
(−)-epigallocatechin gallate [EGCG]	inhibits H5N1 infections	–	–	–
theaflavin-3,3′-digallate	inhibits H5N1 infections	–	–	–
theaflavin-3′-gallate	inhibits H5N1 infections	–	–	–
